# Source: patent US7417144B2, “Factor Xa inhibitors” (Hoffman-La Roche Inc., priority 2005, dated 2008)
# Target: T1, human factor Xa (Homo sapiens, UniProt P00742)
# T1 construct: purchased Enzyme Research Laboratories
# Test: Factor Xa chromogenic peptide substrate (S-2222) assay
# Format: biochemical
# Conditions: apparent Ki from IC50 by Cheng-Prusoff; enzyme 3 nM, substrate S-2222, pH 7.8, room temperature
# Method: Factor Xa activity was measured spectrophotometrically in microtiter plates in a final volume of 150 μl using the following conditions: Inhibition of human factor Xa (Enzyme Research Laboratories) was tested at an enzyme concentration of 3 nM using the chromogenic substrate S-2222 (Chromogenix AB, Mölndal, Sweden) at […]. The reaction kinetics of the enzyme and the substrate were linear with both time and the enzyme concentration. The inhibitors were dissolved in DMSO and tested at various concentrations up to 100 μM. The inhibitors were diluted using HNPT buffer consisting of HEPES 100 mM, NaCl 140 mM, PEG 6000 0.1% and Tween 80 0.02%, pH 7.8. The cleavage of S-2222 by human factor Xa was followed at 405 nm for 5 minutes at room temperature. The velocity of the reaction was determined by the autoreader from the slope of the linear regression fit to 7 time points (1 minute). The initial velocity for each inhibitor concentration was determined by the slope of at least 4 time points in the linear phase by a linear regression fit […]. Apparent dissociation constants Ki were calculated according to Cheng and Prusoff [Cheng, Y. C.; Prusoff, W. H. Relationship between the inhibition constant (Ki) and the concentration of the inhibitor that causes 50 percent inhibition (IC50) of an enzyme reaction. Biochem. Pharmacol. 1973, 22, 3099-3108.] based on the IC50 and the respective Km, determined previously (Ki=IC50/(1+S/Km)). The Km for the substrate used was determined under the conditions of the test with at least 5 substrate concentrations ranging from 0.5 to 15 times Km. [Lottenberg R, Hall J A, Blinder M, Binder E P, Jackson C M., The action of thrombin on peptide p-nitroanilide substrates. Substrate selectivity and examination of hydrolysis under different reaction conditions. Biochim Biophys Acta. 1983 Feb. 15; 742(3):539-57]. According to Eadie [Eadie G.S. The inhibition of cholinesterase by physostigmine and prostigmine. J. Biol. Chem. 1942, 146, 85-93.], the Km for S-2222 amounted to 613 μM.
# T1 sequence (P00742 235-488 limits assumed): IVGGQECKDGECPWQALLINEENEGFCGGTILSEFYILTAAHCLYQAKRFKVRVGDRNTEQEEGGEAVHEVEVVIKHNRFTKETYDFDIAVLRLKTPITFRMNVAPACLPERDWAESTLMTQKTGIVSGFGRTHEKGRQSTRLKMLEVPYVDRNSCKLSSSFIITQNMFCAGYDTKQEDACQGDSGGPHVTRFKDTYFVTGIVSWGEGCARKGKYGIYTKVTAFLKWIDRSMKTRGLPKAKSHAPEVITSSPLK
# T1 sequence (P00742 41-179 partner limits assumed): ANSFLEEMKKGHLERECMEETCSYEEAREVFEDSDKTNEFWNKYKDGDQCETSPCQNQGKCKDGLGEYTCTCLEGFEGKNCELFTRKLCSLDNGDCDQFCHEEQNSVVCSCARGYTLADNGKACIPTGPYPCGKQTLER
row,SMILES,Ki [nM]
1,"Cn1ncc2c1CN(C(=O)Nc1ccc(Cl)cn1)[C@H]2C(=O)Nc1ccc(-n2ccccc2=O)cc1F [Example 3, (R)-1-Methyl-4,6-dihydro-1H-pyrrolo[3,4-c]pyrazole-4,5-dicarboxylic acid 5-[(5-chloro-pyridin-2-yl)-amide]4-{[2-fluoro-4-(2-oxo-2H-pyridin-1-yl)-phenyl]-amide}]",19
2,"O=C(Nc1ccc(-n2ccccc2=O)cc1F)C1Cc2cccnc2N1C(=O)Nc1ccc(Cl)cc1 (stereo not drawn) [Example 16, 2,3-Dihydro-pyrrolo[2,3-b]pyridine-1,2-dicarboxylic acid 1-[(4-chloro-phenyl)-amide]2-{[2-fluoro-4-(2-oxo-2H-pyridin-1-yl)-phenyl]-amide}]",51
3,"O=C(Nc1ccc(-n2ccccc2=O)cc1F)C1Cc2cccnc2CN1C(=O)Nc1ccc(Cl)cc1 (stereo not drawn) [Example 18, 5,8-Dihydro-6H-[1,7]naphthyridine-6,7-dicarboxylic acid 7-[(4-chloro-phenyl)-amide]6-{[2-fluoro-4-(2-oxo-2H-pyridin-1-yl)-phenyl]-amide}]",12
